# Experimental data published in US20220193010A1, “METHODS OF USING DIPIVEFRIN” (INSIGNIS THERAPEUTICS, INC., priority 2017, published 2022).
# Counter-ions that a name gives are not always drawn.
# Experiments:
# [1] = tested on: B16-F10 syngeneic melanoma tumors; assay: Subcutaneous B16-F10 syngeneic melanoma tumor model, oral dipivefrin as single agent; type: in vivo, C57BL/6J mice; conditions: for MST (median survival time): vehicle 17.0
# Description: The treatments were started 7 days before tumor inoculation per study design (day −7).
# The endpoints of the study included the following: tumor growth inhibition (TGJ); reduction in median tumor volume on a given day; survival of all animals will be followed and Median Survival Time (MST) and increase in life-span (ILS) will be calculated for each group.
# The percent tumor growth inhibition (TGJ %) is an indication of antitumor effectiveness, and is expressed as: TGJ (%)=100× (1-TIC), in which T and C are the mean tumor volume of the treated and control groups, respectively, on a given day.
# The endpoint for each mouse is either a tumor volume >3000 mm^3 or the animal is in extreme discomfort (such as pain, seizure, difficulty breathing, etc.). The increase in life-span (ILS) is calculated as follows: ILS (%)=100× [(Median Survival Time of drug treated group/Median Survival Time of vehicle group)−1] (%)
# Female C57BL/6J mice (Shanghai Lingchang Bio-Technology Co. Ltd (LC, Shanghai, China; Animal Certificate No.: 2013001825675) were used in the study. At inoculation, mice were 7-8 weeks old with a body weight of 16.2-18.6 g. The mice were kept in an Individually Ventilated Cage (IVC) system at constant temperature (22˜24° C.) and humidity (60-70%) with 5 animals in each cage. Animals had free access during the entire study period to a standard mouse diet (a Co^60 irradiation-sterilized dry granule food) and water.
# The test articles used in the study were dipivefrin hydrochloride (1.9 mg/ml freebase, pre-formulated dosing solution) or the vehicle (purified water containing 0.005% wt of benzalkonium chloride as preservative). Each was stored at 4° C. The B16-F10 tumor cells were maintained in vitro as a monolayer culture in DMEM medium supplemented with 10% fetal bovine serum at 37° C. in an atmosphere of 5% CO2 in air. The tumor cells were routinely subcultured twice per week. The cells growing in an exponential growth phase were harvested and counted for tumor inoculation.
# Each mouse was inoculated subcutaneously at the right flank region with 2×10^5 B16F10 tumor cells in 0.1 ml of PBS for tumor development. The treatments were started 7 days prior to the inoculation. The test article was administered to the tumor-bearing mice according to the predetermined regimen as shown in the Study Design Table 3. The date of tumor cell inoculation was denoted as day 0.
# First grouping: On day 7, all 30 animals were weighed and the body weight was used as numeric parameter to randomize selected animals into two groups in an effort to minimize systematic error.
# Second grouping: On day 8, all 20 animals in group-1 were randomized into two groups (1a and 1b) based on tumor volume. Dose administrations were performed as shown Table 5.
# After tumor cell inoculation, animals were checked daily for morbidity and mortality. At the time of routine monitoring, the animals were checked for any effects of tumor growth and treatments on normal behavior such as mobility, food and water consumption, body weight gain/loss (body weights were measured twice or thrice per week), eye/hair matting and any other abnormal effect. Death and observed clinical signs were recorded on the basis of the numbers of animals within each subset.
# Tumor volumes were measured twice or thrice per week in two dimensions using a caliper, with the volume in mm^3 estimated using the formula: V=0.5 a×b^2 where a and b are the long and short perpendicular diameters of the tumor, respectively. The procedures of dosing as well as tumor and body weight measurement were conducted in a Laminar Flow Cabinet.
# On day 17, mice which tumor volumes exceeded 3000 mm^3 were euthanized and the whole study was terminated on day 19. Additionally, mouse #15 in group 1-b was dead on day 13 due to an operation error, while mouse #7 in group 1-a was found dead on day 18 due to tumor ulceration. […]
# [2] = tested on: influenza A/California/04/2009 (H1N1pdm) virus; assay: Influenza A (H1N1pdm) virus infection in mice, single oral dose; type: in vivo, C57BL/6J mice; conditions: for body weight loss during infection vs placebo: single p.o. dose 8.48 mg/kg 24 hours after infection, 6-day observation, p<0.05 days 5 and 6; for body weight loss during infection vs placebo / influenza virus titers in lung tissues vs placebo: 8.48 mg/kg; for influenza virus titers in lung tissues vs placebo: day 3 or 6 p.i.
# [3] = for clinical observations after IM injection: dose equivalent to 0.3 mg epinephrine, 3 mice per group
# [4] = beagle dogs N=3, IM 0.3 mg, mean ± SEM
# Experimental: Four days prior to study initiation, 1 mL of whole blood was collected from four (n=4) non-naive male Beagle dogs, aged 1.5-6.5 years and ranging from 9.8 to 10.8 kilograms in weight, into 4 chilled tubes containing K2EDTA. The blood was processed to plasma and plasma cholinesterase activity was assayed according to the Ellman method using acetylthiocholine iodide as the substrate (Ellman, G. L. et al Biochemical Pharmacology, 1961, volume 7, page 88-95). Based on the plasma cholinesterase activity assay results, the first three dogs with highest plasma cholinesterase activity were selected for the PK study.
# The dogs were housed one per cage and identified by ear tags and cage labels. The animals were healthy at the start of the study. Primary enclosures were as specified in the USDA Animal Welfare Act (9 CFR, Parts 1, 2, and 3) and as described in the Guide for Care and Use of Laboratory Animals (ILAR publication, 2011, National Academy Press). Animals were fasted for a minimum of 12 hours prior to dosing and returned 4 hours post dose; Water was supplied ad libitum to the animals.
# Dosing occurred at 0 hours on the appropriate day in accordance with the Study Design table (Table 11). […] The intramuscular dose was administered via 25 gauge needle and syringe into the lateral aspect of the left or right thigh. […]
# in vivo = type: in vivo, New Zealand White Rabbits
# [5] = human, in vivo, im; cited from earlier work
# [6] = Pharmacokinetic profile after single oral administration in mice (plasma epinephrine by LC/MS/MS); type: in vivo, C57BL6 mice; conditions: oral (also IM and IP) administration
# Experimental: Male C57BL6 mice, approximately 14 weeks of age and weighing between 28 and 31 g, were placed in an anesthesia chamber and transiently anesthetized with isoflurane (Henry Schein). After approximately 5 minutes and in the absence of reflex (toe pinch), mice were bled via retro-orbital sinus at t=0 (pre-dose). […] Following oral administration, mice were then retro-orbital bled under anesthesia at the following time points post-dose: 15, 30, 1 h, 2 h, 4 h, and 6 h. About 45 μl of the diluted plasma was recovered and plated. The plasma samples were analyzed for epinephrine using a validated LC/MS/MS method (Keystone Bioanalytics, North Wales Pa.).
# [7] = tested on: methicillin-resistant Staphylococcus aureus (MRSA) NRS71-Sanger 252; assay: Peritonitis-sepsis model of MRSA infection; type: in vivo, C57BL/6J mice
# Experimental: Two (2) groups of C57BL/6J 6 to 8 week old female mice (ca 20 g body weight) with 10 mice/group were injected IP with 2×10^8 CFU/mL of methicillin-resistant Staphylococcus aureus (MRSA) NRS71-Sanger 252 in a volume of 200 μL. The treatment group was dosed with dipivefrin 15.3 mg/kg (freebase) by oral gavage starting at t=−5 days relative to bacterial inoculation. Dosing occurred once daily up to 7 days post bacterial inoculation. Body weights were measured once per day on days 0 to 7 and the experimental endpoint was survival at 7 days. Animals falling below 20% of original weight post-infection was euthanized. Four hours (4 hours) post infection, blood was drawn from 4 animals in each group and bacterial load was determined through a standard plating assay. Each blood sample was diluted by serial log dilutions and 10 dilutions (100 to 10-s) was plated in duplicate on TSA with 5% sheep's blood. The plates were incubated for 24 hours at 37° C. at which time formed colonies was enumerated and CFU/mL was determined. One mouse in the vehicle group was found dead the next day following infection and no subsequent death occurred up to 7 days post infection. No mouse died in the treatment group up to 7 days post infection.
smiles,measurement,setting,value
"CNCC(O)c1ccc(OC(=O)C(C)(C)C)c(OC(=O)C(C)(C)C)c1 (stereo not drawn) [Dipivefrin HCl, Dipivefrin hydrochloride]",drug related deaths,"[1]; 15.3 mg/kg (freebase) p.o. daily, study period",no drug related deaths were observed
same,effect on body weight,"[1]; 15.3 mg/kg (freebase) p.o. daily, tumor-bearing mice",no effect on body weight
same,mean tumor volume,"[1]; 5 days post B16F10 inoculation, 15.3 mg/kg p.o. QD from day -7, vehicle 16.4±2.5, p<0.01",6.2±1.1 mm^3
same,body weight loss during infection vs placebo,[2]; hydrochloride,less weight loss compared to placebos
same,influenza virus titers in lung tissues vs placebo,"[2]; single p.o. dose 8.48 mg/kg, hydrochloride","slightly lower in treated mice compared to placebos, the difference was not statistically significant"
same,absorption and conversion into epinephrine,"[3]; mice, IM 0.636 mg",absorbed rapidly upon IM injection and quickly converted into epinephrine
same,clinical observations after IM injection,[3]; mice,appeared to be normal throughout the study and showed no signs of distress or illness
CNC[C@H](O)c1ccc(O)c(O)c1 [Epinephrine],AUClast (plasma epinephrine),[4],147.37 ± 39.41 ng·min/mL
same,AUC(0-t),"in vivo; female, New Zealand White, rabbit, in vivo, im, 0.3 mg",19.6 ng·h/mL
same,Cmax (plasma epinephrine),"in vivo; rabbits, IM 0.3 mg, mean±SEM",50.23 ± 14.95 ng/mL
same,Tmax,[5],1.12 ± 0.717 h
"CNCC(O)c1ccc(OC(=O)C(C)(C)C)c(OC(=O)C(C)(C)C)c1 (stereo not drawn) [dipivefrin, 4-(1-hydroxy-2-(methylamino)ethyl)-1,2-phenylene bis(2,2-dimethylpropanoate)]",median tumor volume,"[1]; 14 days post B16F10 inoculation, 15.3 mg/kg p.o. QD, vehicle 1060, p<0.05",827 mm^3
same,ILS (increase in life-span),"[1]; Group-1b vs vehicle group 1a, p=0.038",12%
same,MST (median survival time),"[1]; Group-1b, 15.3 mg/kg p.o. from day 8",19.0 days
same,MST (median survival time),"[1]; Group-2, 15.3 mg/kg p.o. from day -7",18.0 days
same,ILS (increase in life-span),"[1]; Group-2 vs vehicle, p=0.175",6%
same,mean tumor volume,"[1]; day 19, group 1b, 15.3 mg/kg p.o. QD from day 8 (established tumor), vehicle 3668.0±311.9",2997.2±341.6 mm^3
same,reduction in mean tumor volume compared to vehicle,"[1]; day 19, group 1b, dosing from day 8",about 18%
same,body weight loss during infection vs placebo,[2],losing less weight
same,influenza virus titers in lung tissues vs placebo,[2]; single p.o. dose 8.48 mg/kg,did not differ significantly
same,visual lung hemorrhage score (scale 0 to 4),"[2]; single p.o. dose 8.48 mg/kg, lungs day 3 and day 6 p.i.",0-3
same,lung virus titers day 6 p.i. vs day 3 p.i.,"[2]; single p.o. dose 8.48 mg/kg, p<0.05",lower virus titers in lung tissues on day 6 p.i. than on day 3 p.i
same,absorption and biotransformation into epinephrine,[6],absorbed and biotransformed into epinephrine rapidly
same,survival at 7 days post infection,"[7]; 15.3 mg/kg (freebase) oral gavage once daily from day -5 to day 7, 10 mice",No mouse died
same,blood bacterial counts,"[7]; 4 hours post infection, 4 animals per group, p<0.05",significantly higher for the vehicle treated group than the drug treated group
CNC[C@H](O)c1ccc(O)c(O)c1 [epinephrine bitartrate],mice found dead,"[3]; IM epinephrine bitartrate 0.546 mg (0.3 mg freebase), approximately 20 minutes post administration",Two out of three
same,clinical observations after IM injection,[3]; mice,cold and lethargic approximately 5 minutes after IM injection
